Results taken from PMC7000700, “RyR1-targeted drug discovery pipeline integrating FRET-based high-throughput screening and human myofiber dynamic Ca^2+ assays” (Scientific Reports, 2020).
“Also recorded” adds a separate entry of the source.

How the values were obtained:
RyR1 = RyR1 (Sus scrofa, UniProt P16960); assay: FLT-FRET between D-FKBP and A-CaM bound to RyR1 in skeletal SR membranes (HTS and dose-response); format: binding, porcine; set-up: RyR1 in skeletal SR membranes, and RyR2 in cardiac SR membranes; from tissue; host or cells: porcine longissimus dorsi muscle (heavy SR vesicles); conditions: 30 nM Ca2+; for Effect on FRET: RyR1 samples, micromolar compound, GSSG or GSH
RyR1, sequence (P16960 whole entry): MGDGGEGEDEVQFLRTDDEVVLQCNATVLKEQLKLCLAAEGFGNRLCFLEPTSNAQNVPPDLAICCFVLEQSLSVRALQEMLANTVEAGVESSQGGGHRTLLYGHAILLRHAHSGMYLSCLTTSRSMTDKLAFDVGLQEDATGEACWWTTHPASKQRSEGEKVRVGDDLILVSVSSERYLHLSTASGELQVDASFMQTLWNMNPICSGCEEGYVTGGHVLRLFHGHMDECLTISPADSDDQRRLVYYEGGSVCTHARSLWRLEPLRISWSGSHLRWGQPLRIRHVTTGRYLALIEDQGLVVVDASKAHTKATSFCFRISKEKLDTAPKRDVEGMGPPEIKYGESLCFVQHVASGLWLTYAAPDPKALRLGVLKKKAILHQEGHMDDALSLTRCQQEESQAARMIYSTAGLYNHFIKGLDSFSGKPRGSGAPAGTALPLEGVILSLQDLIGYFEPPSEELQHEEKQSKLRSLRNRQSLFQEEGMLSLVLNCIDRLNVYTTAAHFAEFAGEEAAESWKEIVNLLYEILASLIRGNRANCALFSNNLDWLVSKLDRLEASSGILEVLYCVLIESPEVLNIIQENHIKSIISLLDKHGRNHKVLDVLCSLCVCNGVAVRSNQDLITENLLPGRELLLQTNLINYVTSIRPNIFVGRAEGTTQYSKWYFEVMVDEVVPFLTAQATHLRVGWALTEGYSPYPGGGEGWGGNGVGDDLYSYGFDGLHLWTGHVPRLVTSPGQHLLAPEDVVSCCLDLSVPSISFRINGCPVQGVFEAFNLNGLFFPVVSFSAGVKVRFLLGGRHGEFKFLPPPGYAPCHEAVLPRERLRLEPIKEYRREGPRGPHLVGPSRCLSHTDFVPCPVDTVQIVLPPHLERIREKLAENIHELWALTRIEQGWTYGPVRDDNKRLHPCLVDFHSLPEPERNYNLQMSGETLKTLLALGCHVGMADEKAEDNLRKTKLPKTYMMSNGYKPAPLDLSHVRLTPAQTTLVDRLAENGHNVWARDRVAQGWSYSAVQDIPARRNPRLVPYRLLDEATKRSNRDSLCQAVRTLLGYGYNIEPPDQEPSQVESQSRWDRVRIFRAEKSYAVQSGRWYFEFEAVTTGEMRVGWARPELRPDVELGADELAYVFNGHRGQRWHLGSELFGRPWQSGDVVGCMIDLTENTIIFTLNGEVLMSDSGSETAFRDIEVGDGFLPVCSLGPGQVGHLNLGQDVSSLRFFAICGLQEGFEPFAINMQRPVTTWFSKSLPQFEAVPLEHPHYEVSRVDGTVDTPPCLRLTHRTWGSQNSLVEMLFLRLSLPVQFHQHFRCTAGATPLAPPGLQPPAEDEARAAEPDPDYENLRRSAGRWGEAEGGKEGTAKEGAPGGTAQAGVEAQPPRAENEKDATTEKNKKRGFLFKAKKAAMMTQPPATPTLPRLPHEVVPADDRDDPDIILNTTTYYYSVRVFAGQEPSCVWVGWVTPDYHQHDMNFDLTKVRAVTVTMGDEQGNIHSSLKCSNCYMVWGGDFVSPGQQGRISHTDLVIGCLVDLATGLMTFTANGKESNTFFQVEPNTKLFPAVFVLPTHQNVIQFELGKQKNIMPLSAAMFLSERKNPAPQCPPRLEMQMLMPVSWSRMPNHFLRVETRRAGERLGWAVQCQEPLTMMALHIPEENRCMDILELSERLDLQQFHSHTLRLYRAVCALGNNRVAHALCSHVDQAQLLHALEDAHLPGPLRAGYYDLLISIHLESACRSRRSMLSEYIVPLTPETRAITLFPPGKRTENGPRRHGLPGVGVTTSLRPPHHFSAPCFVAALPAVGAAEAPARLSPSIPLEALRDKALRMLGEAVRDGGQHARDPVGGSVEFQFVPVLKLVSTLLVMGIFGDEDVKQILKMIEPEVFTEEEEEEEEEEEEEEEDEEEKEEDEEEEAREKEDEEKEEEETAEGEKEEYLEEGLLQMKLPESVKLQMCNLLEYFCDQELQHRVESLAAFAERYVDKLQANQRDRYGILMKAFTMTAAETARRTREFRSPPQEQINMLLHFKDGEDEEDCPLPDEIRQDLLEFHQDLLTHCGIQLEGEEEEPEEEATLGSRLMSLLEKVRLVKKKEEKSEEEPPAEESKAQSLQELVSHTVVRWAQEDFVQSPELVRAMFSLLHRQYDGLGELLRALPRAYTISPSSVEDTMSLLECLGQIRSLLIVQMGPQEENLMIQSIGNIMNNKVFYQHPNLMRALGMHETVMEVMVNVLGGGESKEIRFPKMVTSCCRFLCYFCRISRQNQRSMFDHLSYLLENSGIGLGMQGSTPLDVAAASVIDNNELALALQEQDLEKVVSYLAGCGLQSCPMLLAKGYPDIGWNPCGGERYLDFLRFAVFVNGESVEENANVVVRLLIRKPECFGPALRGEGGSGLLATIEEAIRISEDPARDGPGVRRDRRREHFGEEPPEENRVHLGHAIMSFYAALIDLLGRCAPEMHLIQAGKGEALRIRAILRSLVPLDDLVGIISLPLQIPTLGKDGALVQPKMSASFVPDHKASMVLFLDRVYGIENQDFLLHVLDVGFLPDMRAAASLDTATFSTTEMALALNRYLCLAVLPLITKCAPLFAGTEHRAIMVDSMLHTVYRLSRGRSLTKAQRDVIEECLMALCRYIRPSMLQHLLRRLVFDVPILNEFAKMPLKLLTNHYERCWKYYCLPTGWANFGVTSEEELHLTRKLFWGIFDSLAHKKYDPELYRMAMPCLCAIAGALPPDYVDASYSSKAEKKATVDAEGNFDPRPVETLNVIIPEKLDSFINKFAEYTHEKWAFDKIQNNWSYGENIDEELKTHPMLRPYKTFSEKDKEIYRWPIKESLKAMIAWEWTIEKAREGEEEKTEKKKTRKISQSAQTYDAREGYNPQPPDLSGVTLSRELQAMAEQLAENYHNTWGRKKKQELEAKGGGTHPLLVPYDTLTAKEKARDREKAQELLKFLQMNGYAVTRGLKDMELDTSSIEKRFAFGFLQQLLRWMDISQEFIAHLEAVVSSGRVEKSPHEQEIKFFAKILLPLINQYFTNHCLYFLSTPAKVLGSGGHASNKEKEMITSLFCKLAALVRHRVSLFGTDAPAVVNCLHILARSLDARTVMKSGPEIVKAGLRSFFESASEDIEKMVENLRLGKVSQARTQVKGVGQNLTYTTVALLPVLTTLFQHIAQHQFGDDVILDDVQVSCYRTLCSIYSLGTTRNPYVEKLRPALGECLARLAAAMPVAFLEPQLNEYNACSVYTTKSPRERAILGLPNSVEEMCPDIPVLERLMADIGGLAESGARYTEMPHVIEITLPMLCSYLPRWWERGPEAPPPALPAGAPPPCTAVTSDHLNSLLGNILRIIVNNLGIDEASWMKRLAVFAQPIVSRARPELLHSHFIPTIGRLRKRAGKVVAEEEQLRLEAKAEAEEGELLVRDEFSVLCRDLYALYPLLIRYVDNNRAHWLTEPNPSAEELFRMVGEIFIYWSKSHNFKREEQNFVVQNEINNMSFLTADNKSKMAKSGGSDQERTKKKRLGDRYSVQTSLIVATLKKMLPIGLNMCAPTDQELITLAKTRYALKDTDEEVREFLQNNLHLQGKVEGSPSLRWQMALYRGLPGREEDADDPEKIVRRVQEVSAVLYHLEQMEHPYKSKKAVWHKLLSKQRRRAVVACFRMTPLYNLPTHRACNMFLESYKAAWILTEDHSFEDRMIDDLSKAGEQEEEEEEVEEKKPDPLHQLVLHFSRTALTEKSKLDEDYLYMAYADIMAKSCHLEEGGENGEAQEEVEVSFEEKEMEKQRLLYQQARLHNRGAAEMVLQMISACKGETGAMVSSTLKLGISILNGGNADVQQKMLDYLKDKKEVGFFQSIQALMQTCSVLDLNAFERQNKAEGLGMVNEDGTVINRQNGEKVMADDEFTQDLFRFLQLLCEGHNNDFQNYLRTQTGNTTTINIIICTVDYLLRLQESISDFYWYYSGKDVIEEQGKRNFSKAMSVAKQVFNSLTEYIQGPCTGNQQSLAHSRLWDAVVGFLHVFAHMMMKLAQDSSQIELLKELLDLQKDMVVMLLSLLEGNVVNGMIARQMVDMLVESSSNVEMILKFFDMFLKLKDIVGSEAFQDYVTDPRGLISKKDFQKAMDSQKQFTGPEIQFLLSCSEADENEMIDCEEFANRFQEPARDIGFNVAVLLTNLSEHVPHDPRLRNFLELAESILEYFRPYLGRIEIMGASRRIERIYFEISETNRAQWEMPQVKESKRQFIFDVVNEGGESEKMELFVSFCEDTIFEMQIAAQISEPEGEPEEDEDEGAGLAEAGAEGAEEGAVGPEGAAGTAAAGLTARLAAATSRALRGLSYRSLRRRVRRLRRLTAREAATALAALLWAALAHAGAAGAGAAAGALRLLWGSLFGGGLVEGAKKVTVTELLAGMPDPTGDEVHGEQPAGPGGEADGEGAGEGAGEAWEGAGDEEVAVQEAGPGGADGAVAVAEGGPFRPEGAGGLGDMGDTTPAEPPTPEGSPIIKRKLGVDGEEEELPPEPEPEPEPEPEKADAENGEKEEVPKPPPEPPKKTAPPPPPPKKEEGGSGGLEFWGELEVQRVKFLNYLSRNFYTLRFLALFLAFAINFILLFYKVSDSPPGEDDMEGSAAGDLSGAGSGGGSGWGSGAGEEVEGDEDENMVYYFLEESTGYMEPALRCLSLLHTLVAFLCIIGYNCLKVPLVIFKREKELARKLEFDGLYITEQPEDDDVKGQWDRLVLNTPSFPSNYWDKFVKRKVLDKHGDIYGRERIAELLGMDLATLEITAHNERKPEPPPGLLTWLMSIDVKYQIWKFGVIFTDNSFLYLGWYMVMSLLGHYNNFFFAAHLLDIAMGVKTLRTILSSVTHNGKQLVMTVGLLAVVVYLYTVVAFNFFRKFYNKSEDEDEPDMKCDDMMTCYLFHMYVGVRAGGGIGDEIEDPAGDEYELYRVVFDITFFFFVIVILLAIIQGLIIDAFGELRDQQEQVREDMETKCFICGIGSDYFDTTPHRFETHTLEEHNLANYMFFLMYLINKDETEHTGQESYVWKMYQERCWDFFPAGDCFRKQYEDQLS
Protocol: To confer compatibility with current HTS standards in industrial drug discovery facilities, we miniaturized our screening format from the previously established 384-well plates, requiring 50 μL sample per well[19], to 1536-well plates, requiring 5 μL sample per well. The complete 1280-compound library of pharmacologically active compounds (LOPAC) was applied as 5 nL/well in 40 columns of one 1536-well black-wall/black-bottom plate, with the remaining 8 columns loaded with 5 nL/well of DMSO, as no-drug controls. For each run of the screen, three plates were loaded with either (1) unlabeled HSR, or (2) HSR pre-incubated with donor-FKBP (D-FKBP; donor-only sample), or (3) donor-only sample that was additionally incubated with 0.3 μM acceptor-CaM (A-CaM) for 60 min prior to loading on the plate (donor-acceptor sample). This sub-saturating concentration of A-CaM was used to provide a readout that is sensitive to library compounds that may increase or decrease CaM binding affinity to RyR. To promote a homogenous population of RyR1 resembling that associated with myopathies, final assay conditions also included 30 nM Ca^2+ to represent resting (muscle relaxing) Ca^2+, and 5 mM oxidized glutathione (GSSG), which exaggerates the conditions associated with oxidative stress.
We acquired both FLT waveforms and fluorescence spectra, as previously described[19],[33],[34]. As previously observed, Hit effects were greatest following a 2-hour incubation with the library compounds (Supplementary Fig. 1a). As a result, all FRET results shown in Figs. 1 and 2, and Supplementary Fig. 2 are reported from the 2-hour incubation.
Necessary counter-screens to our pathological RyR1 conditions include evaluating compound effects in healthy conditions and on the cardiac isoform, RyR2. Using the same FRET assay as in HTS, we tested the dose response of key Hits from this screen and the previously HTS-identified RyR1 inhibitor, chloroxine, on healthy (5 mM GSH) and pathological (5 mM GSSG) conditions for both RyR1 in skeletal SR membranes, and RyR2 in cardiac SR membranes.
Skeletal HSR and cardiac CSR (0.4 mg/ml) membranes were independently pre-incubated with 60 nM D-FKBP, for 90 min, at 37 °C, in a solution containing 150 mM KCl, 5 mM GSH, 0.1 mg/mL BSA, 1 µg/mL Aprotinin/Leupeptin, 1 mM DTT and 20 mM PIPES (pH 7.0). To remove unbound D-FKBP, the SR membranes were spun down at 110,000 × g for 20 min, and then resuspended to 1 mg/mL (skeletal HSR) and 2 mg/mL (cardiac CSR) in binding buffer consisting of 150 mM KCl, 5 mM GSSG, 0.1 mg/mL BSA, 1μg/mL Aprotinin/Leupeptin and 20 mM PIPES, pH 7.0. These samples were then incubated with indicated [A-CaM] for 30 min at 22 °C in binding buffer containing 0.065 mM CaCl2 to give 30 nM free Ca^2+ in the presence of 1 mM EGTA (calculated by MaxChelator). This labeled SR sample was applied to the assay plates in 5 μL aliquots using a Multidrop™ Combi reagent dispenser (Thermo Scientific) with a standard-tube. An additional set of the assay plates were loaded with skeletal HSR or cardiac CSR labeled with only D-FKBP (no added A-CaM).
FLT measurements were conducted in a top-read FLT-PR designed and built by Fluorescence Innovations, Inc[33]. AF488 donor fluorescence was excited with a 473-nm microchip laser from Concepts Research Corporation (Belgium, WI), and emission was acquired with 490-nm long-pass and 517/20-nm band-pass filters (Semrock, Rochester, NY).
FLT waveforms for each well were fit based on a one-exponential decay function using least-squares minimization global-analysis software (Fluorescence Innovations, Inc.), as previously described[19],[33]. FRET efficiency (E) was determined as the fractional decrease of donor FLT (τD), due to the presence of acceptor fluorophore (τDA), using the following equation:1 E=1−τDA/τD, […]

[1] = tested on: electrically evoked Ca^2+ transients in rat skinned fibers; assay: Electrically evoked Ca2+ transients (EC coupling) in rat skinned skeletal muscle fibers; format: cell-based; conditions: field stimulation 1 Hz, 100 nM free Ca2+
From the text: To test the potential impact of these compounds on excitation contraction coupling, we measured voltage-induced Ca^2+ transients in rat skeletal muscle fibers. To do this, we again used mechanically skinned fibers. Because the t-system reseals upon mechanical skinning, bathing the preparation in a K^+-based cytoplasmic solution (with a small amount of Na^+) allows the Na^+-K^+ pump to re-establish the normal membrane potential. EC coupling can be initiated by exciting the preparation with field pulses that generate action potentials in the t-system to trigger Ca^2+ release[52]–[54]. Ca^2+ release is tracked by imaging rhod-2 in the cytoplasm via confocal microscopy in line-scan mode, and quantitatively plotted in Fig. 5 (based on recordings such as shown in Supplementary Fig. 7). A major advantage of using skinned fibers is that known concentrations of RyR modulators can be added to the cytoplasm, as they were added in the “leak” experiments. With this approach, we found 1 and 10 μM myricetin reduced Ca^2+ transient peak amplitude by 12% (P = 0.0046) and 48% (P < 0.0001), respectively (Fig. 5 and Supplementary Fig. 7a). In the case of chloroxine, only addition of 100 μM led to a detectable 14% (P < 0.0001) reduction in the Ca^2+ transient peak amplitude (Fig. 5 and Supplementary Fig. 7b). Therefore, both compounds, have impact on Ca^2+ transients that is markedly lower than their effect on the t-tubule readout of RyR1 [Ca^2+] leak (Figs. 4 and 5).
All experimental methods using rats were approved by The Animal Ethics Committee at The University of Queensland. Five month old Wistar rats (UQ Biological Resources, Brisbane) were euthanized by asphyxiation via CO2 exposure, and the extensor digitorum longus (EDL) were rapidly excised.
Skinned rat fibers were prepared and bathed in a resting physiological solution containing 100 nM Ca^2+, 1 mM Mg^2+, 36 mM Na^+, 126 mM K^+, 1 mM EGTA, 90 mM HEPES, […], 10 mM creatine phosphate and 8 mM ATP (pH 7.4). The Ca^2+ sensitive dye rhod-2 was used to track cytosolic Ca^2+ transients when exposed to electrical stimulation. […]

Row | Effect on FRET (RyR1) | SMILES | Hit in primary FLT-FRET HTS of LOPAC (FRET altered by > 4 SD vs DMSO) (RyR1; 10 μM compound, 2-hour incubation, 5 mM GSSG, 0.3 μM A-CaM, 1536-well) | Reduction of Ca2+ transient peak amplitude ([1]; 1 μM compound) | Reduction of Ca2+ transient peak amplitude ([1]; 10 μM compound) | Reduction of Ca2+ transient peak amplitude ([1]; 100 μM compound)
1 | increases FRET | O=c1c(O)c(-c2cc(O)c(O)c(O)c2)oc2cc(O)cc(O)c12 [myricetin] | identified; also recorded: increased the FRET efficiency readout | 12% | 48% | –
2 | increased | Oc1c(Cl)cc(Cl)c2cccnc12 [chloroxine] | – | – | – | 14%
